One block for each molecule: values may come before it.
Test: in vitro
Details: for Concentration, analyte PEA / % Remaining of Initial (n = 1) / Concentration (μM) of analyte PEA, 0 min / Concentration (μM) of analyte PEA, 10 min / Concentration (μM) of analyte PEA, 20 min / Concentration (μM) of analyte PEA, 30 min / Concentration (μM) of analyte PEA, 60 min / % Remaining of Initial (n = 1), 0 min / % Remaining of Initial (n = 1), 10 min / % Remaining of Initial (n = 1), 20 min / % Remaining of Initial (n = 1), 30 min / % Remaining of Initial (n = 1), 60 min: 1 μM
Protocol: Reaction mixture, minus cofactors, was prepared as described below. Test article was added into the reaction mixture at a final concentration of 1 μM. […] An aliquot of the reaction mixture (without cofactor cocktail) was equilibrated in a shaking water bath at 37° C. for 3 minutes. The reaction was initiated by the addition of cofactor cocktail (see below), and the mixture was then incubated in a shaking water bath at 37° C. Aliquots (100 μL) were withdrawn 0, 10, 20, 30 and 60 minutes. Test article samples were immediately combined with 300 μL of ice-cold acetonitrile containing 1% formic acid. Control samples were immediately combined with 400 μL of ice-cold 50/50 acetonitrile (ACN)/dH2O containing 0.1% formic acid and internal standard to terminate the reaction. Samples were then mixed and centrifuged to precipitate proteins. Calibration standards were prepared in matched matrix. Samples and standards were assayed by LC-MS/MS using electrospray ionization for both the dosed prodrug and the expected drug (PEA). Analytical conditions are outlined in Appendix 8-1. Test article concentration at each time point was compared to the test article concentration at time 0 to determine the percent remaining at each time point. Half-lives were calculated using GraphPad software, fitting to a single-phase exponential decay equation.
Reaction mixture, minus cofactors, was prepared as described below. Test article was added into the reaction mixture at a final concentration of 1 μM. […] An aliquot of the reaction mixture (without cofactor cocktail) was equilibrated in a shaking water bath at 37° C. for 5 minutes. Reaction was initiated by the addition of cofactor cocktail (see below), and mixture was then incubated in a shaking water bath at 37° C. Aliquots (100 μL) were withdrawn at 0, 10, 20, 30, and 60 minutes. Test article samples were immediately combined with 300 μL of ice-cold acetonitrile containing 1% formic acid. Control samples were immediately combined with 400 μL of ice-cold 50/50 acetonitrile (ACN)/dH2O containing 0.1% formic acid and internal standard to terminate the reaction. Samples were then mixed and centrifuged to precipitate proteins. Calibration standards were prepared in matched matrix. Samples and standards were assayed by LC-MS/MS using electrospray ionization for both dosed prodrug and expected drug (PEA). Analytical conditions are outlined in Appendix 10-1. Test article concentration at each time point was compared to test article concentration at time 0 to determine the percent remaining at each time point. Half-lives were calculated using GraphPad software, fitting to a single-phase exponential decay equation.
The reaction mixture, minus cofactors, was prepared as described below. Test article was added into the reaction mixture at a final concentration of 1 μM. […] An aliquot of the reaction mixture (without cofactor cocktail) was equilibrated in a shaking water bath at 37° C. for 3 minutes. Reaction was initiated by the addition of cofactor cocktail (see below), and the mixture was then incubated in a shaking water bath at 37° C. Aliquots (100 μL) were withdrawn at 0, 10, 20, 30, and 60 minutes. Test article samples were immediately combined with 300 μL of ice-cold acetonitrile containing 1% formic acid. Control samples were immediately combined with 400 μL of ice-cold 50/50 acetonitrile (ACN)/dH2O containing 0.1% formic acid and internal standard to terminate the reaction. Samples were then mixed and centrifuged to precipitate proteins. Calibration standards were prepared in matched matrix. Samples and standards were assayed by LC-MS/MS using electrospray ionization for both dosed prodrug and expected drug (PEA). Analytical conditions are outlined in Appendix 13-1. Test article concentration at each time point was compared to the test article concentration at time 0 to determine the percent remaining at each time point.

[1] = male, Sprague-Dawley, rat, 0 min
[2] = male, Sprague-Dawley, rat, 10 min
[3] = male, Sprague-Dawley, rat, 20 min
[4] = male, Sprague-Dawley, rat, 30 min
[5] = male, Sprague-Dawley, rat, 60 min
[6] = male, Sprague-Dawley, rat, s9, 0 h
[7] = male, Sprague-Dawley, rat, s9, 10 min
[8] = male, Sprague-Dawley, rat, s9, 20 min
[9] = male, Sprague-Dawley, rat, s9, 0.5 h
[10] = male, Sprague-Dawley, rat, s9, 1 h

Concentration, analyte PEA (both, human, 0 min): 0 µM
Concentration, analyte PEA (both, human, 10 min): 0 µM
Concentration, analyte PEA (both, human, 20 min): 0 µM
Concentration, analyte PEA (both, human, 30 min): 0 µM
Concentration, analyte PEA (both, human, 60 min): 0 µM
% Remaining of Initial (n = 1) (both, human, s9, 0 h): 100%
% Remaining of Initial (n = 1) (both, human, s9, 10 min): 93%
% Remaining of Initial (n = 1) (both, human, s9, 20 min): 87%
% Remaining of Initial (n = 1) (both, human, s9, 0.5 h): 78%
% Remaining of Initial (n = 1) (both, human, s9, 1 h): 45%
half-life at 1 μM (both, human, s9, Half-life): 58 min
Concentration, analyte PEA (male, Beagle, dog, 0 min): 0.015 µM
Concentration, analyte PEA (male, Beagle, dog, 10 min): 0.025 µM
Concentration, analyte PEA (male, Beagle, dog, 20 min): 0.020 µM
Concentration, analyte PEA (male, Beagle, dog, 30 min): 0.024 µM
Concentration, analyte PEA (male, Beagle, dog, 60 min): 0.021 µM
% Remaining of Initial (n = 1) (male, Beagle, dog, s9, 0 h): 100%
% Remaining of Initial (n = 1) (male, Beagle, dog, s9, 10 min): 70%
% Remaining of Initial (n = 1) (male, Beagle, dog, s9, 20 min): 61%
% Remaining of Initial (n = 1) (male, Beagle, dog, s9, 0.5 h): 61%
% Remaining of Initial (n = 1) (male, Beagle, dog, s9, 1 h): 37%
Concentration, analyte PEA (male, CD-1, mouse, 0 min): 0 µM
Concentration, analyte PEA (male, CD-1, mouse, 10 min): 0 µM
Concentration, analyte PEA (male, CD-1, mouse, 20 min): 0 µM
Concentration, analyte PEA (male, CD-1, mouse, 30 min): 0 µM
Concentration, analyte PEA (male, CD-1, mouse, 60 min): 0 µM
% Remaining of Initial (n = 1) (male, CD-1, mouse, s9, 0 h): 100%
% Remaining of Initial (n = 1) (male, CD-1, mouse, s9, 10 min): 89%
% Remaining of Initial (n = 1) (male, CD-1, mouse, s9, 20 min): 90%
% Remaining of Initial (n = 1) (male, CD-1, mouse, s9, 0.5 h): 79%
% Remaining of Initial (n = 1) (male, CD-1, mouse, s9, 1 h): 78%
half-life at 1 μM (male, CD-1, mouse, s9, Half-life): > 60 min
Concentration, analyte PEA [1]: 0 µM
Concentration, analyte PEA [2]: 0 µM
Concentration, analyte PEA [3]: 0 µM
Concentration, analyte PEA [4]: 0 µM
Concentration, analyte PEA [5]: 0 µM
% Remaining of Initial (n = 1) [6]: 100%
% Remaining of Initial (n = 1) [7]: 76%
% Remaining of Initial (n = 1) [8]: 74%
% Remaining of Initial (n = 1) [9]: 59%
% Remaining of Initial (n = 1) [10]: 45%
half-life at 1 μM (male, Sprague-Dawley, rat, s9, Half-life): 50 min
SMILES: CCCCC/C=C\C/C=C\CCCCCCCC(=O)OCC(COC(=O)CCC(=O)OCCNC(=O)CCCCCCCCCCCCCCC)OC(=O)CCCCCCC/C=C\C/C=C\CCCCC (stereo not drawn) [Compound I-13]

Concentration (μM) of analyte PEA, 0 min (both, human, 0 min): 0.20 µM
Concentration (μM) of analyte PEA, 10 min (both, human, 10 min): 0.32 µM
Concentration (μM) of analyte PEA, 20 min (both, human, 20 min): 0.17 µM
Concentration (μM) of analyte PEA, 30 min (both, human, 30 min): 0.13 µM
Concentration (μM) of analyte PEA, 60 min (both, human, 60 min): 0.042 µM
% Remaining of Initial (n = 1), 0 min (both, human, s9, 0 h): 100%
% Remaining of Initial (n = 1), 10 min (both, human, s9, 10 min): 1.9%
% Remaining of Initial (n = 1), 20 min (both, human, s9, 20 min): <1.0%
% Remaining of Initial (n = 1), 30 min (both, human, s9, 0.5 h): <1.0%
% Remaining of Initial (n = 1), 60 min (both, human, s9, 1 h): <1.0%
Concentration (μM) of analyte PEA, 0 min (male, Beagle, dog, 0 min): 0.21 µM
Concentration (μM) of analyte PEA, 10 min (male, Beagle, dog, 10 min): 0.16 µM
Concentration (μM) of analyte PEA, 20 min (male, Beagle, dog, 20 min): 0.15 µM
Concentration (μM) of analyte PEA, 30 min (male, Beagle, dog, 30 min): 0.12 µM
Concentration (μM) of analyte PEA, 60 min (male, Beagle, dog, 60 min): 0.049 µM
% Remaining of Initial (n = 1), 0 min (male, Beagle, dog, s9, 0 h): 100%
% Remaining of Initial (n = 1), 10 min (male, Beagle, dog, s9, 10 min): <1.0%
% Remaining of Initial (n = 1), 20 min (male, Beagle, dog, s9, 20 min): <1.0%
% Remaining of Initial (n = 1), 30 min (male, Beagle, dog, s9, 0.5 h): <1.0%
% Remaining of Initial (n = 1), 60 min (male, Beagle, dog, s9, 1 h): <1.0%
half-life at 1 μM (male, Beagle, dog, s9, Half-life (min)): < 1 min
Concentration (μM) of analyte PEA, 0 min (male, CD-1, mouse, 0 min): 0.22 µM
Concentration (μM) of analyte PEA, 10 min (male, CD-1, mouse, 10 min): 0.22 µM
Concentration (μM) of analyte PEA, 20 min (male, CD-1, mouse, 20 min): 0.14 µM
Concentration (μM) of analyte PEA, 30 min (male, CD-1, mouse, 30 min): 0.084 µM
Concentration (μM) of analyte PEA, 60 min (male, CD-1, mouse, 60 min): 0.020 µM
% Remaining of Initial (n = 1), 0 min (male, CD-1, mouse, s9, 0 h): 100%
% Remaining of Initial (n = 1), 10 min (male, CD-1, mouse, s9, 10 min): 1.6%
% Remaining of Initial (n = 1), 20 min (male, CD-1, mouse, s9, 20 min): <1.0%
% Remaining of Initial (n = 1), 30 min (male, CD-1, mouse, s9, 0.5 h): <1.0%
% Remaining of Initial (n = 1), 60 min (male, CD-1, mouse, s9, 1 h): <1.0%
Concentration (μM) of analyte PEA, 0 min [1]: 0.045 µM
Concentration (μM) of analyte PEA, 10 min [2]: 0.15 µM
Concentration (μM) of analyte PEA, 20 min [3]: 0.16 µM
Concentration (μM) of analyte PEA, 30 min [4]: 0.12 µM
Concentration (μM) of analyte PEA, 60 min [5]: 0.039 µM
% Remaining of Initial (n = 1), 0 min [6]: 100%
% Remaining of Initial (n = 1), 10 min [7]: 43%
% Remaining of Initial (n = 1), 20 min [8]: 22%
% Remaining of Initial (n = 1), 30 min [9]: 11%
% Remaining of Initial (n = 1), 60 min [10]: 1.4%
SMILES: CCCCCCCCCCCCCCCC(=O)NCCOC(=O)CCC(=O)OC[C@H]1O[C@@](CO)(O[C@H]2O[C@H](CO)[C@@H](O)[C@H](O)[C@H]2O)[C@@H](O)[C@@H]1O [Compound I-7]

Reference: patent publication US11547681B2, “N-acylethanolamide derivatives and uses thereof” (ELIEM THERAPEUTICS, INC., priority 2016, dated 2023)
